Laboratory results taken from patent publication US20260007758A1, “SO[…]-2 RECEPTOR (SST2R) NON-PEPTIDE DRUG CONJUGATES AND USES THEREOF” (Crinetics Pharmaceuticals, Inc., priority 2024, published 2026).

Assays:
Format in all cases: cell-based
[1] = biological target: T1, human somatostatin receptor subtype 2 (Homo sapiens, UniProt P30874); test: Functional assay for SSTR2 agonists (HTRF cAMP); details: CHO-K1 cells stably expressing human SST2; NKH477-stimulated cAMP; 20 min at 37 C; read-out: hSST2 cAMP Avg EC50
T1 construct: expressed in transfected cells
T1 sequence (P30874 whole entry): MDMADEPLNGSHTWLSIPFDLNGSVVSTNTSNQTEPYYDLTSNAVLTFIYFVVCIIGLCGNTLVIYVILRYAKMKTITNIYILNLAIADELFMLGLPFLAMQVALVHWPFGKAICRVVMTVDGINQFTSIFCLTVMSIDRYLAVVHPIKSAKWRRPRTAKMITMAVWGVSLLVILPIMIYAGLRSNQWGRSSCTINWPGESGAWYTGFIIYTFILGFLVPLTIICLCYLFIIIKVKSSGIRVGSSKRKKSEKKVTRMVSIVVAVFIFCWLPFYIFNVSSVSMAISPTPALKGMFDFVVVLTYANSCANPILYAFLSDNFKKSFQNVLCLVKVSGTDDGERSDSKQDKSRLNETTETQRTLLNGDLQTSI
Procedure, shortened: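 CHO-K1 cells stably expressing human SSTR2 treated with compound (typically 0-10,000 nM final) for 20 min at 37 °C. Lysate cAMP measured by HTRF (665/620 nm ratio), converted via standard curve; EC50 from cAMP vs concentration.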

SST2 = biological target: T2, SST2 (Homo sapiens, UniProt P30874); test: PathHunter CHO-K1 SST2 Internalization Assay; details: PathHunter CHO-K1 SST2 cells; 90 min at 37 C; luminescence; read-out: Internalization EC50
T2 construct: host or cells: PathHunter CHO-K1 SST2 cells
T2 sequence (P30874 whole entry): as above
Procedure, shortened: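 CHO-K1 cells expressing human SST2, 2500 cells/well, grown 48 h, then exposed 90 min at 37 C to 11-point 1:3 NDC dilutions (final top 10 uM). Beta-Glo luminescence after 60 min at room temperature; four-parameter IC50, duplicate mean, background-corrected.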

[2] = tested on: NCI-H524 human small cell lung cancer cells; test: H524 assay: inhibition of cell proliferation (CellTiter Glo); details: 2 h treatment, washout, additional 70 h incubation
Procedure, shortened: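 NCI-H524 cells were exposed for 2 h to NDC in an 11-point two-fold series starting at 1 uM. The drug was then washed out and cells grew a further 70 h. CellTiter Glo luminescence gave % inhibition versus untreated control, and IC50 came from a four-parameter nonlinear regression.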

Structure (SMILES)	EC50 [1]	EC50 (SST2)	EC50 [2]
CC[C@H](C)[C@@H]([C@@H](CC(=O)N1CCC[C@H]1[C@H](OC)[C@@H](C)C(=O)N[C@H](C)[C@@H](O)c1ccccc1)OC)N(C)C(=O)[C@@H](NC(=O)[C@H](C(C)C)N(C)C(=O)OCc1ccc(NC(=O)[C@H](CCCNC(N)=O)NC(=O)[C@@H](NC(=O)[C@@H](CS(=O)(=O)O)NC(=O)CCOCCC(=O)NCCNc2ncc(-c3cc(C)cc(F)c3)c(N3CCC(N)CC3)c2-c2nc3ccc(Cl)cc3[nH]2)C(C)C)cc1C(=O)NCCN)C(C)C [Compound 29]	0.076 nM	8.5 nM	2.6 nM
CC[C@H](C)[C@@H]([C@@H](CC(=O)N1CCC[C@H]1[C@H](OC)[C@@H](C)C(=O)N[C@H](C)[C@@H](O)c1ccccc1)OC)N(C)C(=O)[C@@H](NC(=O)[C@H](C(C)C)N(C)C(=O)OCc1ccc(NC(=O)[C@H](C)NC(=O)[C@@H](NC(=O)CCOCCC(=O)NCCNc2ncc(-c3cc(C)cc(F)c3)c(N3CCC(N)CC3)c2-c2nc3ccc(Cl)cc3[nH]2)C(C)C)c(O[C@@H]2O[C@H](C(=O)NCC(=O)O)[C@@H](O)[C@H](O)[C@H]2O)c1)C(C)C [Compound 33]	0.15 nM	2.5 nM	7 nM
CC[C@H](C)[C@@H]([C@@H](CC(=O)N1CCC[C@H]1[C@H](OC)[C@@H](C)C(=O)N[C@H](C)[C@@H](O)c1ccccc1)OC)N(C)C(=O)[C@@H](NC(=O)[C@H](C(C)C)N(C)C(=O)OCc1ccc(NC(=O)[C@H](C)NC(=O)[C@@H](NC(=O)CCOCCC(=O)NCCNc2ncc(-c3cc(C)cc(F)c3)c(N3CCC(N)CC3)c2-c2nc3ccc(Cl)cc3[nH]2)C(C)C)c(O[C@@H]2O[C@H](C(N)=O)[C@@H](O)[C@H](O)[C@H]2O)c1)C(C)C [Compound 34]	0.12 nM	4.4 nM	1.6 nM
CC[C@H](C)[C@@H]([C@@H](CC(=O)N1CCC[C@H]1[C@H](OC)[C@@H](C)C(=O)N[C@H](C)[C@@H](O)c1ccccc1)OC)N(C)C(=O)[C@@H](NC(=O)[C@H](C(C)C)N(C)C(=O)OCc1ccc(NC(=O)[C@H](CCCNC(N)=O)NC(=O)[C@@H](NC(=O)C[C@@H](N)C(=O)NCCOCCC(=O)NCCNc2ncc(-c3cc(C)cc(F)c3)c(N3CCC(N)CC3)c2-c2nc3ccc(Cl)cc3[nH]2)C(C)C)c(O[C@@H]2O[C@H](C(=O)NCC(=O)O)[C@@H](O)[C@H](O)[C@H]2O)c1)C(C)C [Compound 35]	0.1 nM	5 nM	16 nM
CC[C@H](C)[C@@H]([C@@H](CC(=O)N1CCC[C@H]1[C@H](OC)[C@@H](C)C(=O)N[C@H](C)[C@@H](O)c1ccccc1)OC)N(C)C(=O)[C@@H](NC(=O)[C@H](C(C)C)N(C)C(=O)OCc1ccc(NC(=O)[C@H](CCCNC(N)=O)NC(=O)[C@@H](NC(=O)CCOCCC(=O)NCCNc2ncc(-c3cc(C)cc(F)c3)c(N3CCC(N)CC3)c2-c2nc3ccc(Cl)cc3[nH]2)C(C)C)c(O[C@@H]2O[C@H](C(=O)NCCN)[C@@H](O)[C@H](O)[C@H]2O)c1)C(C)C [Compound 40]	0.2 nM	8.7 nM	1.7 nM
CC[C@H](C)[C@@H]([C@@H](CC(=O)N1CCC[C@H]1[C@H](OC)[C@@H](C)C(=O)N[C@H](C)[C@@H](O)c1ccccc1)OC)N(C)C(=O)[C@@H](NC(=O)[C@H](C(C)C)N(C)C(=O)OCc1ccc(NC(=O)[C@H](C)NC(=O)[C@@H](NC(=O)[C@@H](CS(=O)(=O)O)NC(=O)CCOCCC(=O)NCCNc2ncc(-c3cc(C)cc(F)c3)c(N3CCC(N)CC3)c2-c2nc3ccc(Cl)cc3[nH]2)C(C)C)c(O[C@@H]2O[C@H](C(=O)NCCN)[C@@H](O)[C@H](O)[C@H]2O)c1)C(C)C [Compound 41]	0.081 nM	9 nM	40 nM
CC[C@H](C)[C@@H]([C@@H](CC(=O)N1CCC[C@H]1[C@H](OC)[C@@H](C)C(=O)N[C@H](C)[C@@H](O)c1ccccc1)OC)N(C)C(=O)[C@@H](NC(=O)[C@H](C(C)C)N(C)C(=O)OCc1ccc(NC(=O)[C@H](C)NC(=O)[C@@H](NC(=O)CCOCCC(=O)N(C)CC(=O)NCCNc2ncc(-c3cc(C)cc(F)c3)c(N3CCC(N)CC3)c2-c2nc3ccc(Cl)cc3[nH]2)C(C)C)c(O[C@@H]2O[C@H](C(=O)NCC(=O)O)[C@@H](O)[C@H](O)[C@H]2O)c1)C(C)C [Compound 42]	0.1 nM	3.8 nM	25 nM
CC[C@H](C)[C@@H]([C@@H](CC(=O)N1CCC[C@H]1[C@H](OC)[C@@H](C)C(=O)N[C@H](C)[C@@H](O)c1ccccc1)OC)N(C)C(=O)[C@@H](NC(=O)[C@H](C(C)C)N(C)C(=O)OCc1ccc(NC(=O)[C@H](CCCNC(N)=O)NC(=O)[C@@H](NC(=O)CCOCCC(=O)NCCNc2ncc(-c3cc(C)cc(F)c3)c(N3CCC(N)CC3)c2-c2cc3ccc(Cl)cc3[nH]2)C(C)C)c(O[C@@H]2C[C@H](C(=O)NCCN)[C@@H](O)[C@H](O)[C@H]2O)c1)C(C)C [Compound 43]	0.24 nM	6.6 nM	1.8 nM
CC[C@H](C)[C@@H]([C@@H](CC(=O)N1CCC[C@H]1[C@H](OC)[C@@H](C)C(=O)N[C@H](C)[C@@H](O)c1ccccc1)OC)N(C)C(=O)[C@@H](NC(=O)[C@H](C(C)C)N(C)C(=O)OCc1ccc(NC(=O)[C@H](CCCNC(N)=O)NC(=O)[C@@H](NC(=O)CCOCCC(=O)NCCNc2ncc(-c3cc(C)cc(F)c3)c(N3CCC(N)CC3)c2-c2nc3cc(Cl)ccc3[nH]2)C(C)C)c(O[C@@H]2O[C@H](C(=O)NCC(=O)O)[C@@H](O)[C@H](O)[C@H]2O)c1)C(C)C [Compound 44]	0.085 nM	4.5 nM	4.8 nM
CC[C@H](C)[C@@H]([C@@H](CC(=O)N1CCC[C@H]1[C@H](OC)[C@@H](C)C(=O)N[C@H](C)[C@@H](O)c1ccccc1)OC)N(C)C(=O)[C@@H](NC(=O)[C@H](C(C)C)N(C)C(=O)OCc1ccc(NC(=O)[C@H](CCCNC(N)=O)NC(=O)[C@@H](NC(=O)CCOCCC(=O)NCCNc2ncc(-c3cc(C)cc(F)c3)c(N3CCC(N)CC3)c2-c2nc3ccc(Cl)cc3[nH]2)C(C)C)c(O[C@@H]2O[C@H](C(=O)NCCC(=O)O)[C@@H](O)[C@H](O)[C@H]2O)c1)C(C)C [Compound 49]	0.14 nM	3.4 nM	9.4 nM
CC[C@H](C)[C@@H]([C@@H](CC(=O)N1CCC[C@H]1[C@H](OC)[C@@H](C)C(=O)N[C@H](C)[C@@H](O)c1ccccc1)OC)N(C)C(=O)[C@@H](NC(=O)[C@H](C(C)C)N(C)C(=O)OCc1ccc(NC(=O)[C@H](C)NC(=O)[C@@H](NC(=O)CCOCCC(=O)N(C)CC(=O)NCCNc2ncc(-c3cc(C)cc(F)c3)c(N3CCC(N)CC3)c2-c2nc3ccc(Cl)cc3[nH]2)C(C)C)c(O[C@@H]2O[C@H](C(=O)NCS(=O)(=O)O)[C@@H](O)[C@H](O)[C@H]2O)c1)C(C)C [Compound 50]	0.13 nM	6.8 nM	36 nM
CC[C@H](C)[C@@H]([C@@H](CC(=O)N1CCC[C@H]1[C@H](OC)[C@@H](C)C(=O)N[C@H](C)[C@@H](O)c1ccccc1)OC)N(C)C(=O)[C@@H](NC(=O)[C@H](C(C)C)N(C)C(=O)OCc1ccc(NC(=O)[C@H](C)NC(=O)[C@@H](NC(=O)CCOCCC(=O)N(C)CC(=O)NCCNc2ncc(-c3cc(C)cc(F)c3)c(N3CCC(N)CC3)c2-c2nc3ccc(Cl)cc3[nH]2)C(C)C)c(O[C@@H]2O[C@H](C(=O)NCCS(=O)(=O)O)[C@@H](O)[C@H](O)[C@H]2O)c1)C(C)C [Compound 51]	0.092 nM	4.4 nM	28 nM
CC[C@H](C)[C@@H]([C@@H](CC(=O)N1CCC[C@H]1[C@H](OC)[C@@H](C)C(=O)N[C@H](C)[C@@H](O)c1ccccc1)OC)N(C)C(=O)[C@@H](NC(=O)[C@H](C(C)C)N(C)C(=O)OCc1ccc(NC(=O)[C@H](CCCNC(N)=O)NC(=O)[C@@H](NC(=O)CCOCCC(=O)NCCNc2ncc(-c3cc(C)cc(F)c3)c(N3CCC(N)CC3)c2-c2nc3ccc(Cl)cc3[nH]2)C(C)C)c(O[C@@H]2O[C@H](C(=O)NCCNC(=O)CCOCCOCCOCCOCCC(=O)O)[C@@H](O)[C@H](O)[C@H]2O)c1)C(C)C [Compound 52]	0.14 nM	3.5 nM	17 nM
CC[C@H](C)[C@@H]([C@@H](CC(=O)N1CCC[C@H]1[C@H](OC)[C@@H](C)C(=O)N[C@H](C)[C@@H](O)c1ccccc1)OC)N(C)C(=O)[C@@H](NC(=O)[C@H](C(C)C)N(C)C(=O)OCc1ccc(NC(=O)[C@H](CCCNC(N)=O)NC(=O)[C@@H](NC(=O)CCOCCC(=O)NCCNc2ncc(-c3cc(C)cc(F)c3)c(N3CCC(N)CC3)c2-c2nc3ccc(Cl)cc3[nH]2)C(C)C)c(O[C@@H]2O[C@H](C(=O)N[C@@H](CCCCNC(=O)CCCCc3ccc(I)cc3)C(=O)O)[C@@H](O)[C@H](O)[C@H]2O)c1)C(C)C [Compound 54]	0.26 nM	2.1 nM	20 nM
CC[C@H](C)[C@@H]([C@@H](CC(=O)N1CCC[C@H]1[C@H](OC)[C@@H](C)C(=O)N[C@H](C)[C@@H](O)c1ccccc1)OC)N(C)C(=O)[C@@H](NC(=O)[C@H](C(C)C)N(C)C(=O)OCc1ccc(NC(=O)[C@H](CCCNC(N)=O)NC(=O)[C@@H](NC(=O)CCOCCC(=O)NCCNc2ncc(-c3cc(C)cc(F)c3)c(N3CCC(N)CC3)c2-c2nc3ccc(Cl)cc3[nH]2)C(C)C)c(O[C@@H]2O[C@H](C(=O)NCCC(=O)N[C@@H](CCCCNC(=O)CCCCc3ccc(I)cc3)C(=O)O)[C@@H](O)[C@H](O)[C@H]2O)c1)C(C)C [Compound 55]	0.25 nM	2 nM	11 nM
